Experimental data: patent publication EP1844781A1 (priority 2006, dated 2007)
Read-outs that look alike come from different tables or passages of the source.

Key:
Type in all cases: cell-based, Wistar rats
[1] = tested on: uterine strips; assay: tissue or blood
[2] = tested on: uterine strips; assay: Effect of inhibitors on electrically-induced uterine contractions (field electrical stimulation)
[3] = tested on: uterine strips; assay: tissue or blood; settings: for minimal effective concentration: read-out: concentration at which rhythmic contractions appeared
[4] = tested on: uterine strips
[5] = tested on: myometrial strips; assay: Simultaneous measurement of contractile force and [Ca2+]i (Fura-2); settings: veratridine 60 µM; myometrial fibers loaded with Fura-2; responding strips (10 of 21)
[6] = cumulative concentrations 1 nM-30 µM, strips exposed for 90 min (late response) to 60 µM veratridine

CN1[C@@H]2CC[C@H]1C[C@@H](OC(=O)C(CO)c1ccccc1)C2 (stereo partly drawn) [Atropine, atropine]
contractile area of spontaneous contractions, % of the previous contractile area [1]: 26.7 ± 2.2%
effect on spontaneous uterine contractions [1]: abolished or almost abolished
contractile area of electrically-induced uterine contractions, % of the previous contraction [2]: 30.3 ± 8.1%

COc1cc2nc(N3CCN(C(=O)c4ccco4)CC3)nc(N)c2cc1OC [Prazosin, prazosin]
activity at 1 µM ([1]; Rattus norvegicus, 40 min, read-out: contractile area of spontaneous contractions, % of the previous contractile area): 108 ± 9.1%
activity at 1 µM ([2]; Rattus norvegicus, read-out: contractile area of electrically-induced uterine contractions, % of the previous contraction): 92.3 ± 4%

CCN1C[C@]2(COC)[C@H](O)C[C@H](OC)[C@@]34[C@@H]5C[C@@]6(O)[C@H](OC(=O)c7ccccc7)[C@@H]5[C@@](OC(C)=O)([C@@H]([C@H](OC)[C@H]23)[C@@H]14)[C@@H](O)[C@@H]6OC [aconitine]
concentration at which the maximal response was reached [3]: 100 µM
minimal effective concentration [3]: ≥ 100 µM

C=C(C=O)C[C@@H]1C[C@H](O)[C@]2(C)O[C@@H]3C[C@@H]4O[C@@H]5C[C@]6(C)O[C@]7(C)CC[C@@H]8O[C@@H]9C[C@]%10(C)O[C@@H]%11C(C)=CC(=O)O[C@H]%11C[C@H]%10O[C@H]9C[C@@H](C)[C@H]8O[C@H]7C[C@H]6O[C@H]5C/C=C\[C@H]4O[C@H]3C[C@H]2O1 [brevetoxin-B]
concentration at which the maximal response was reached [3]: 0.03 µM

O=C(NCC1CCCCN1)c1cc(OCC(F)(F)F)ccc1OCC(F)(F)F (stereo not drawn) [flecainide]
effect on veratridine-induced rhythmic contractions [4, 6]: did not modify

COc1ccc(C(=O)O[C@H]2CC[C@@]3(C)[C@@H]4CC[C@H]5[C@]6(O)C[C@H](O)[C@@]7(O)[C@@H](CN8C[C@@H](C)CC[C@H]8[C@@]7(C)O)[C@]6(O)C[C@@]53O[C@]24O)cc1OC [veratridine]
minimal effective concentration ([3]; Rattus norvegicus, […], non-pregnant rats, undetermined stage of the ovarian cycle): ≥ 10 µM
concentration at which the maximal response was reached ([3]; measured during a 60 min application, 1.9 or 1.1 mM Ca2+-containing solution): 60 µM
time the contractile response remained very regular and well maintained after addition ([3]; veratridine 60 µM, continuous presence, 24 uterine strips from 12 animals): at least 12 h
frequency of contractions [5]: 0.75 ± 0.09 min⁻¹
mean amplitude of rhythmic contractions during a 10-min period [5]: 8.48 ± 1.20 mN

CCOC(=O)C1=C[C@]2(CC)CCCN3CCc4c(n1c1ccccc41)[C@@H]32 [vinpocetine]
effect on veratridine-induced rhythmic contractions [4, 6]: did not modify

grayanotoxin
concentration at which the maximal response was reached [3]: 30 µM
minimal effective concentration [3]: ≥ 20 µM

µ-conotoxin GIIIB
effect on veratridine-induced rhythmic contractions [4]: did not modify
